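Each compound was tested at five concentrations against cells in 96-well plates for 48 hours. At the TGI there is no net growth.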
Tested on: DU-145 prostate
Assay: NCI-60 cell line screen, 48 h

| SMILES | TGI |
| --- | --- |
| Clc1ccc(/C=C/c2nc3ccccc3s2)cc1Cl | > 100 µM |
| O=C1CCC(=O)N1n1c(Cc2ccccc2)n[nH]c1=O | > 100 µM |
| CCOC(=O)c1c2ccccc2n2c(N)c(C(N)=O)nnc12 | > 100 µM |
| CC1=C(C)[C@@]2(C)O[C@@]2(C)O[C@@]2(C)O[C@@]12C | > 100 µM |

Tested on: COLO 205 colon
Assay: NCI-60 cell line screen, 48 h

| SMILES | TGI |
| --- | --- |
| Clc1ccc(/C=C/c2nc3ccccc3s2)cc1Cl | > 100 µM |
| O=C1CCC(=O)N1n1c(Cc2ccccc2)n[nH]c1=O | > 100 µM |
| CCOC(=O)c1c2ccccc2n2c(N)c(C(N)=O)nnc12 | > 100 µM |
| CC1=C(C)[C@@]2(C)O[C@@]2(C)O[C@@]2(C)O[C@@]12C | > 100 µM |

Tested on: LOX IMVI melanoma
Assay: NCI-60 cell line screen, 48 h

| SMILES | TGI |
| --- | --- |
| Clc1ccc(/C=C/c2nc3ccccc3s2)cc1Cl | 3.12 µM |
| O=C1CCC(=O)N1n1c(Cc2ccccc2)n[nH]c1=O | > 100 µM |
| CCOC(=O)c1c2ccccc2n2c(N)c(C(N)=O)nnc12 | > 100 µM |
| CC1=C(C)[C@@]2(C)O[C@@]2(C)O[C@@]2(C)O[C@@]12C | > 100 µM |

Tested on: A549 NSCLC
Assay: NCI-60 cell line screen, 48 h

| SMILES | TGI |
| --- | --- |
| Clc1ccc(/C=C/c2nc3ccccc3s2)cc1Cl | > 100 µM |
| O=C1CCC(=O)N1n1c(Cc2ccccc2)n[nH]c1=O | > 100 µM |
| CCOC(=O)c1c2ccccc2n2c(N)c(C(N)=O)nnc12 | > 100 µM |
| CC1=C(C)[C@@]2(C)O[C@@]2(C)O[C@@]2(C)O[C@@]12C | > 100 µM |

Tested on: U251 CNS
Assay: NCI-60 cell line screen, 48 h

| SMILES | TGI |
| --- | --- |
| Clc1ccc(/C=C/c2nc3ccccc3s2)cc1Cl | > 100 µM |
| O=C1CCC(=O)N1n1c(Cc2ccccc2)n[nH]c1=O | > 100 µM |
| CCOC(=O)c1c2ccccc2n2c(N)c(C(N)=O)nnc12 | 55.2 µM |
| CC1=C(C)[C@@]2(C)O[C@@]2(C)O[C@@]2(C)O[C@@]12C | > 100 µM |

Tested on: SF-539 CNS
Assay: NCI-60 cell line screen, 48 h

| SMILES | TGI |
| --- | --- |
| Clc1ccc(/C=C/c2nc3ccccc3s2)cc1Cl | > 100 µM |
| CCOC(=O)c1c2ccccc2n2c(N)c(C(N)=O)nnc12 | 49.8 µM |

Tested on: MDA-MB-435
Assay: NCI-60 cell line screen, 48 h

| SMILES | TGI |
| --- | --- |
| Clc1ccc(/C=C/c2nc3ccccc3s2)cc1Cl | > 100 µM |
| O=C1CCC(=O)N1n1c(Cc2ccccc2)n[nH]c1=O | > 100 µM |
| CCOC(=O)c1c2ccccc2n2c(N)c(C(N)=O)nnc12 | > 100 µM |
| CC1=C(C)[C@@]2(C)O[C@@]2(C)O[C@@]2(C)O[C@@]12C | > 100 µM |

Tested on: SF-295 CNS
Assay: NCI-60 cell line screen, 48 h

| SMILES | TGI |
| --- | --- |
| Clc1ccc(/C=C/c2nc3ccccc3s2)cc1Cl | > 100 µM |
| O=C1CCC(=O)N1n1c(Cc2ccccc2)n[nH]c1=O | > 100 µM |
| CCOC(=O)c1c2ccccc2n2c(N)c(C(N)=O)nnc12 | > 100 µM |
| CC1=C(C)[C@@]2(C)O[C@@]2(C)O[C@@]2(C)O[C@@]12C | > 100 µM |

Tested on: IGROV1 ovarian
Assay: NCI-60 cell line screen, 48 h

| SMILES | TGI |
| --- | --- |
| Clc1ccc(/C=C/c2nc3ccccc3s2)cc1Cl | > 100 µM |
| O=C1CCC(=O)N1n1c(Cc2ccccc2)n[nH]c1=O | > 100 µM |
| CCOC(=O)c1c2ccccc2n2c(N)c(C(N)=O)nnc12 | 42.6 µM |

Tested on: NCI-H23 lung
Assay: NCI-60 cell line screen, 48 h

| SMILES | TGI |
| --- | --- |
| Clc1ccc(/C=C/c2nc3ccccc3s2)cc1Cl | > 100 µM |
| CCOC(=O)c1c2ccccc2n2c(N)c(C(N)=O)nnc12 | 66.2 µM |
| CC1=C(C)[C@@]2(C)O[C@@]2(C)O[C@@]2(C)O[C@@]12C | > 100 µM |

Tested on: M14 melanoma
Assay: NCI-60 cell line screen, 48 h

| SMILES | TGI |
| --- | --- |
| Clc1ccc(/C=C/c2nc3ccccc3s2)cc1Cl | > 100 µM |
| O=C1CCC(=O)N1n1c(Cc2ccccc2)n[nH]c1=O | > 100 µM |
| CCOC(=O)c1c2ccccc2n2c(N)c(C(N)=O)nnc12 | > 100 µM |
| CC1=C(C)[C@@]2(C)O[C@@]2(C)O[C@@]2(C)O[C@@]12C | > 100 µM |

Tested on: CAKI-1 renal
Assay: NCI-60 cell line screen, 48 h

| SMILES | TGI |
| --- | --- |
| Clc1ccc(/C=C/c2nc3ccccc3s2)cc1Cl | 48.6 µM |
| O=C1CCC(=O)N1n1c(Cc2ccccc2)n[nH]c1=O | > 100 µM |
| CCOC(=O)c1c2ccccc2n2c(N)c(C(N)=O)nnc12 | > 100 µM |
| CC1=C(C)[C@@]2(C)O[C@@]2(C)O[C@@]2(C)O[C@@]12C | > 100 µM |

Tested on: HCT-15 colon
Assay: NCI-60 cell line screen, 48 h

| SMILES | TGI |
| --- | --- |
| Clc1ccc(/C=C/c2nc3ccccc3s2)cc1Cl | > 100 µM |
| O=C1CCC(=O)N1n1c(Cc2ccccc2)n[nH]c1=O | > 100 µM |
| CCOC(=O)c1c2ccccc2n2c(N)c(C(N)=O)nnc12 | > 100 µM |
| CC1=C(C)[C@@]2(C)O[C@@]2(C)O[C@@]2(C)O[C@@]12C | > 100 µM |

Tested on: OVCAR-8 ovarian
Assay: NCI-60 cell line screen, 48 h

| SMILES | TGI |
| --- | --- |
| Clc1ccc(/C=C/c2nc3ccccc3s2)cc1Cl | > 100 µM |
| O=C1CCC(=O)N1n1c(Cc2ccccc2)n[nH]c1=O | > 100 µM |
| CCOC(=O)c1c2ccccc2n2c(N)c(C(N)=O)nnc12 | 55 µM |
| CC1=C(C)[C@@]2(C)O[C@@]2(C)O[C@@]2(C)O[C@@]12C | > 100 µM |

Tested on: SK-MEL-28 melanoma
Assay: NCI-60 cell line screen, 48 h

| SMILES | TGI |
| --- | --- |
| Clc1ccc(/C=C/c2nc3ccccc3s2)cc1Cl | > 100 µM |
| O=C1CCC(=O)N1n1c(Cc2ccccc2)n[nH]c1=O | > 100 µM |
| CCOC(=O)c1c2ccccc2n2c(N)c(C(N)=O)nnc12 | > 100 µM |
| CC1=C(C)[C@@]2(C)O[C@@]2(C)O[C@@]2(C)O[C@@]12C | > 100 µM |

Tested on: RPMI-8226 leukemia
Assay: NCI-60 cell line screen, 48 h

| SMILES | TGI |
| --- | --- |
| Clc1ccc(/C=C/c2nc3ccccc3s2)cc1Cl | > 100 µM |
| O=C1CCC(=O)N1n1c(Cc2ccccc2)n[nH]c1=O | > 100 µM |
| CCOC(=O)c1c2ccccc2n2c(N)c(C(N)=O)nnc12 | > 100 µM |

Tested on: A498 renal
Assay: NCI-60 cell line screen, 48 h

| SMILES | TGI |
| --- | --- |
| O=C1CCC(=O)N1n1c(Cc2ccccc2)n[nH]c1=O | > 100 µM |
| CCOC(=O)c1c2ccccc2n2c(N)c(C(N)=O)nnc12 | 71 µM |
| CC1=C(C)[C@@]2(C)O[C@@]2(C)O[C@@]2(C)O[C@@]12C | > 100 µM |

Tested on: MDA-MB-231 breast
Assay: NCI-60 cell line screen, 48 h

| SMILES | TGI |
| --- | --- |
| Clc1ccc(/C=C/c2nc3ccccc3s2)cc1Cl | > 100 µM |
| O=C1CCC(=O)N1n1c(Cc2ccccc2)n[nH]c1=O | > 100 µM |
| CCOC(=O)c1c2ccccc2n2c(N)c(C(N)=O)nnc12 | 88.6 µM |
| CC1=C(C)[C@@]2(C)O[C@@]2(C)O[C@@]2(C)O[C@@]12C | > 100 µM |

Tested on: BT-549 breast
Assay: NCI-60 cell line screen, 48 h

| SMILES | TGI |
| --- | --- |
| Clc1ccc(/C=C/c2nc3ccccc3s2)cc1Cl | > 100 µM |
| O=C1CCC(=O)N1n1c(Cc2ccccc2)n[nH]c1=O | > 100 µM |
| CCOC(=O)c1c2ccccc2n2c(N)c(C(N)=O)nnc12 | 89.9 µM |
| CC1=C(C)[C@@]2(C)O[C@@]2(C)O[C@@]2(C)O[C@@]12C | > 100 µM |

Tested on: SW-620 colon
Assay: NCI-60 cell line screen, 48 h

| SMILES | TGI |
| --- | --- |
| O=C1CCC(=O)N1n1c(Cc2ccccc2)n[nH]c1=O | > 100 µM |
| CCOC(=O)c1c2ccccc2n2c(N)c(C(N)=O)nnc12 | > 100 µM |

Tested on: KM12 colon
Assay: NCI-60 cell line screen, 48 h

| SMILES | TGI |
| --- | --- |
| Clc1ccc(/C=C/c2nc3ccccc3s2)cc1Cl | > 100 µM |
| O=C1CCC(=O)N1n1c(Cc2ccccc2)n[nH]c1=O | 46.4 µM |
| CCOC(=O)c1c2ccccc2n2c(N)c(C(N)=O)nnc12 | > 100 µM |
| CC1=C(C)[C@@]2(C)O[C@@]2(C)O[C@@]2(C)O[C@@]12C | > 100 µM |

Tested on: SR leukemia
Assay: NCI-60 cell line screen, 48 h

| SMILES | TGI |
| --- | --- |
| Clc1ccc(/C=C/c2nc3ccccc3s2)cc1Cl | > 100 µM |
| O=C1CCC(=O)N1n1c(Cc2ccccc2)n[nH]c1=O | > 100 µM |
| CCOC(=O)c1c2ccccc2n2c(N)c(C(N)=O)nnc12 | > 100 µM |
| CC1=C(C)[C@@]2(C)O[C@@]2(C)O[C@@]2(C)O[C@@]12C | > 100 µM |

Tested on: MALME-3M melanoma
Assay: NCI-60 cell line screen, 48 h

| SMILES | TGI |
| --- | --- |
| Clc1ccc(/C=C/c2nc3ccccc3s2)cc1Cl | > 100 µM |
| O=C1CCC(=O)N1n1c(Cc2ccccc2)n[nH]c1=O | > 100 µM |
| CCOC(=O)c1c2ccccc2n2c(N)c(C(N)=O)nnc12 | > 100 µM |
| CC1=C(C)[C@@]2(C)O[C@@]2(C)O[C@@]2(C)O[C@@]12C | > 100 µM |

Tested on: SK-MEL-2 melanoma
Assay: NCI-60 cell line screen, 48 h

| SMILES | TGI |
| --- | --- |
| O=C1CCC(=O)N1n1c(Cc2ccccc2)n[nH]c1=O | > 100 µM |
| CCOC(=O)c1c2ccccc2n2c(N)c(C(N)=O)nnc12 | > 100 µM |
| CC1=C(C)[C@@]2(C)O[C@@]2(C)O[C@@]2(C)O[C@@]12C | > 100 µM |

Tested on: 786-0 renal
Assay: NCI-60 cell line screen, 48 h

| SMILES | TGI |
| --- | --- |
| Clc1ccc(/C=C/c2nc3ccccc3s2)cc1Cl | 32.1 µM |
| O=C1CCC(=O)N1n1c(Cc2ccccc2)n[nH]c1=O | > 100 µM |
| CCOC(=O)c1c2ccccc2n2c(N)c(C(N)=O)nnc12 | > 100 µM |

Tested on: UACC-257 melanoma
Assay: NCI-60 cell line screen, 48 h

| SMILES | TGI |
| --- | --- |
| Clc1ccc(/C=C/c2nc3ccccc3s2)cc1Cl | > 100 µM |
| O=C1CCC(=O)N1n1c(Cc2ccccc2)n[nH]c1=O | > 100 µM |
| CCOC(=O)c1c2ccccc2n2c(N)c(C(N)=O)nnc12 | > 100 µM |
| CC1=C(C)[C@@]2(C)O[C@@]2(C)O[C@@]2(C)O[C@@]12C | > 100 µM |

Tested on: SN12C renal
Assay: NCI-60 cell line screen, 48 h

| SMILES | TGI |
| --- | --- |
| Clc1ccc(/C=C/c2nc3ccccc3s2)cc1Cl | > 100 µM |
| O=C1CCC(=O)N1n1c(Cc2ccccc2)n[nH]c1=O | > 100 µM |
| CCOC(=O)c1c2ccccc2n2c(N)c(C(N)=O)nnc12 | > 100 µM |
| CC1=C(C)[C@@]2(C)O[C@@]2(C)O[C@@]2(C)O[C@@]12C | > 100 µM |

Tested on: OVCAR-5 ovarian
Assay: NCI-60 cell line screen, 48 h

| SMILES | TGI |
| --- | --- |
| Clc1ccc(/C=C/c2nc3ccccc3s2)cc1Cl | > 100 µM |
| O=C1CCC(=O)N1n1c(Cc2ccccc2)n[nH]c1=O | > 100 µM |
| CCOC(=O)c1c2ccccc2n2c(N)c(C(N)=O)nnc12 | > 100 µM |
| CC1=C(C)[C@@]2(C)O[C@@]2(C)O[C@@]2(C)O[C@@]12C | > 100 µM |

Tested on: K-562 leukemia
Assay: NCI-60 cell line screen, 48 h

| SMILES | TGI |
| --- | --- |
| Clc1ccc(/C=C/c2nc3ccccc3s2)cc1Cl | > 100 µM |
| O=C1CCC(=O)N1n1c(Cc2ccccc2)n[nH]c1=O | > 100 µM |
| CCOC(=O)c1c2ccccc2n2c(N)c(C(N)=O)nnc12 | > 100 µM |
| CC1=C(C)[C@@]2(C)O[C@@]2(C)O[C@@]2(C)O[C@@]12C | > 100 µM |

— PubChem BioAssay (NCI)
